Reference: patent US7704995B2 (Exelixis, Inc., priority 2003, dated 2010)

The compounds below were run against T1, Chk1 (Homo sapiens, UniProt O14757) (assay: Chk1 kinase assay: incorporation of γ-33P ATP into immobilized myelin basic protein). Details: Table 11; Chk1 only; read-out: Chk1 IC50.
T1 construct: purchased Upstate Biotechnology
T1 sequence (O14757 1-476): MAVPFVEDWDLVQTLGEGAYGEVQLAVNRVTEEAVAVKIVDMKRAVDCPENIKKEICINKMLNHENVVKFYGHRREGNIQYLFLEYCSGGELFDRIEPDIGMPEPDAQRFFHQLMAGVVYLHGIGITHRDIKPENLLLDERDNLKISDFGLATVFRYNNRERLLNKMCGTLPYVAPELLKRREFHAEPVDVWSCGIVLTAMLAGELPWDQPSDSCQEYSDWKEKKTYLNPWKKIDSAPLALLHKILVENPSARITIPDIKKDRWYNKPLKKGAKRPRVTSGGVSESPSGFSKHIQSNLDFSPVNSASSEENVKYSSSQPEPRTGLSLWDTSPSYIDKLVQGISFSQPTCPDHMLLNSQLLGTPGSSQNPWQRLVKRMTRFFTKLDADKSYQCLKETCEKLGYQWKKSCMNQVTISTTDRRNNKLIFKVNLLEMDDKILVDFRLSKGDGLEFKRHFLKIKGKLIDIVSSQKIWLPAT
Format: biochemical
Outline: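 Plates coated with MBP, then kinase reactions in Hepes pH 7.6 buffer with 10 mM MgCl2 and 1% DMSO were started by adding unlabeled plus γ-33P ATP (10 μM for Chk1 at 10 nM enzyme; 30 μM for Chk2 at 20 nM enzyme). After 1 h at room temperature, plates were washed and counted.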

`Nc1ncc(-c2cccc(CN[C@H]3CCc4ccccc43)c2)nc1C(=O)NCCc1c[nH]cn1` [Example 558, 3-amino-6-(3-{[(1S)-2,3-dihydro-1H-inden-1-ylamino]methyl}phenyl)-N-[2-(1H-imidazol-4-yl)ethyl]pyrazine-2-carboxamide] and `CNCCNC(=O)c1nc(-c2cccc(CN[C@H]3CCc4ccccc43)c2)cnc1N` [Example 559, 3-amino-6-(3-{[(1S)-2,3-dihydro-1H-inden-1-ylamino]methyl}phenyl)-N-[2-(methylamino)ethyl]pyrazine-2-carboxamide] cannot be ordered by IC50: less than 50 nM for the first, less than 50 nM for the second.

`Nc1ncc(-c2cccc(C(=O)NCc3ccccc3)c2)nc1C(=O)c1cccc(F)c1` [Example 560, 3-{5-amino-6-[(3-fluorophenyl)carbonyl]pyrazin-2-yl}-N-(phenylmethyl)benzamide] and `Nc1ncc(-c2cccc(C(=O)NCc3ccccc3)c2)nc1C(=O)c1ccc(Cl)c(F)c1` [Example 587, 3-{5-amino-6-[(4-chloro-3-fluorophenyl)carbonyl]pyrazin-2-yl}-N-(phenylmethyl)benzamide] cannot be ordered by IC50: no less than 10000 nM for the first, no less than 10000 nM for the second.

First: Nc1ncc(-c2cccc(CN[C@H]3CCc4ccccc43)c2)nc1C(=O)NCCCO [Example 561, 3-amino-6-(3-{[(1S)-2,3-dihydro-1H-inden-1-ylamino]methyl}phenyl)-N-(3-hydroxypropyl)pyrazine-2-carboxamide]
Second: CN(C)CCCNC(=O)c1nc(-c2cccc(CN[C@H]3CCc4ccccc43)c2)cnc1N [Example 585, 3-amino-6-(3-{[(1S)-2,3-dihydro-1H-inden-1-ylamino]methyl}phenyl)-N-[3-(dimethylamino)propyl]pyrazine-2-carboxamide]
The IC50 of the first is lower: 50 to 1000 nM for the first, 1000 to 10000 nM for the second.

`CC(C)(C)OC(=O)N1CCC(NC(=O)c2nc(-c3cccc(C(=O)NCc4ccccc4)c3)cnc2N)CC1` [Example 562, 1,1-dimethylethyl 4-({[3-amino-6-(3-{[(phenylmethyl)amino]carbonyl}phenyl)pyrazin-2-yl]carbonyl}amino)piperidine-1-carboxylate] and `CC(C)(C)OC(=O)N1CCC(NC(=O)c2nc(-c3cccc(C(=O)NCc4ccccc4)c3)cnc2N)C1` (stereo not drawn) [Example 567, 1,1-dimethylethyl 3-({[3-amino-6-(3-{[(phenylmethyl)amino]carbonyl}phenyl)pyrazin-2-yl]carbonyl}amino)pyrrolidine-1-carboxylate] cannot be ordered by IC50: no less than 10000 nM for the first, no less than 10000 nM for the second.

First: CC(C)(C)OC(=O)N1CCC(CNC(=O)c2nc(-c3cccc(C(=O)NCc4ccccc4)c3)cnc2N)CC1 [Example 563, 1,1-dimethylethyl 4-[({[3-amino-6-(3-{[(phenylmethyl)amino]carbonyl}phenyl)pyrazin-2-yl]carbonyl}amino)methyl]piperidine-1-carboxylate]
Second: Nc1ncc(-c2cccc(C(=O)NCc3ccccc3)c2)nc1C(=O)NCC1CCNCC1 [Example 565, 3-amino-6-(3-{[(phenylmethyl)amino]carbonyl}phenyl)-N-(piperidin-4-ylmethyl)pyrazine-2-carboxamide]
The IC50 of the first is higher: no less than 10000 nM for the first, 50 to 1000 nM for the second. The second is the more potent here.

`Nc1ncc(-c2cccc(C(=O)NCc3ccccc3)c2)nc1C(=O)NC1CCNCC1` [Example 564, 3-amino-6-(3-{[(phenylmethyl)amino]carbonyl}phenyl)-N-piperidin-4-ylpyrazine-2-carboxamide] and `Nc1ncc(-c2cccc(C(=O)NCc3ccccc3)c2)nc1C(=O)NC1CCNC1` (stereo not drawn) [Example 568, 3-amino-6-(3-{[(phenylmethyl)amino]carbonyl}phenyl)-N-pyrrolidin-3-ylpyrazine-2-carboxamide] fall in the same range of IC50: 50 to 1000 nM for the first, 50 to 1000 nM for the second.

`Nc1ncc(-c2cccc(C(=O)NCc3ccccc3)c2)nc1C(=O)N1CCOCC1` [Example 566, 3-[5-amino-6-(morpholin-4-ylcarbonyl)pyrazin-2-yl]-N-(phenylmethyl)benzamide] and `CN1CCN(C(=O)c2nc(-c3cccc(C(=O)NCc4ccccc4)c3)cnc2N)CC1` [Example 573, 3-{5-amino-6-[(4-methylpiperazin-1-yl)carbonyl]pyrazin-2-yl}-N-(phenylmethyl)benzamide] cannot be ordered by IC50: 1000 to 10000 nM for the first, no less than 10000 nM for the second.

Compared with `Nc1ncc(-c2cccc(CO)c2)nc1-c1nnc(-c2ccco2)[nH]1` [Example 570, {3-[5-amino-6-(5-furan-2-yl-4H-1,2,4-triazol-3-yl)pyrazin-2-yl]phenyl}methanol], `COc1cccc(-c2nnc(-c3nc(-c4cccc(CO)c4)cnc3N)[nH]2)c1` [Example 571, [3-(5-amino-6-{5-[3-(methyloxy)phenyl]-4H-1,2,4-triazol-3-yl}pyrazin-2-yl)phenyl]methanol] is higher in IC50: 50 to 1000 nM for the first, no less than 10000 nM for the second. The first is the more potent here.

First: Nc1ncc(-c2cccc(CO)c2)nc1C(=O)NNC(=O)Nc1ccccc1 [Example 572, 2-({3-amino-6-[3-(hydroxymethyl)phenyl]pyrazin-2-yl}carbonyl)-N-phenylhydrazinecarboxamide]
Second: Nc1ncc(-c2cccc(C(=O)NCc3ccccc3)c2)nc1C(=O)NCC(=O)O [Example 577, N-{[3-amino-6-(3-{[(phenylmethyl)amino]carbonyl}phenyl)pyrazin-2-yl]carbonyl}glycine]
The IC50 of the first is lower: 50 to 1000 nM for the first, no less than 10000 nM for the second. The first is the more potent here.

`Nc1ncc(-c2cccc(C(=O)NCc3ccccc3)c2)nc1C(=O)N1CCN(c2ccc(F)cc2)CC1` [Example 574, 3-(5-amino-6-{[4-(4-fluorophenyl)piperazin-1-yl]carbonyl}pyrazin-2-yl)-N-(phenylmethyl)benzamide] and `Nc1ncc(-c2cccc(C(=O)NCc3ccccc3)c2)nc1C(=O)N1CCN(Cc2ccccc2)CC1` [Example 575, 3-(5-amino-6-{[4-(phenylmethyl)piperazin-1-yl]carbonyl}pyrazin-2-yl)-N-(phenylmethyl)benzamide] cannot be ordered by IC50: no less than 10000 nM for the first, no less than 10000 nM for the second.

`COC(=O)CNC(=O)c1nc(-c2cccc(C(=O)NCc3ccccc3)c2)cnc1N` [Example 576, methyl N-{[3-amino-6-(3-{[(phenylmethyl)amino]carbonyl}phenyl)pyrazin-2-yl]carbonyl}glycinate] and `COC(=O)[C@@H]1CCCN1C(=O)c1nc(-c2cccc(C(=O)NCc3ccccc3)c2)cnc1N` [Example 590, methyl 1-{[3-amino-6-(3-{[(phenylmethyl)amino]carbonyl}phenyl)pyrazin-2-yl]carbonyl}-L-prolinate] cannot be ordered by IC50: 1000 to 10000 nM for the first, no less than 10000 nM for the second.

`Nc1ncc(-c2cccc(C(=O)NCc3ccccc3)c2)nc1C(=O)c1cc(F)cc(F)c1` [Example 578, 3-{5-amino-6-[(3,5-difluorophenyl)carbonyl]pyrazin-2-yl}-N-(phenylmethyl)benzamide] and `CN(C)c1ccc(C(=O)c2nc(-c3cccc(C(=O)NCc4ccccc4)c3)cnc2N)cc1` [Example 589, 3-(5-amino-6-{[4-(dimethylamino)phenyl]carbonyl}pyrazin-2-yl)-N-(phenylmethyl)benzamide] cannot be ordered by IC50: no less than 10000 nM for the first, no less than 10000 nM for the second.

`Nc1ncc(-c2cccc(C(=O)NCc3ccccc3)c2)nc1C(=O)c1ccc(-c2ccccc2)cc1` [Example 579, 3-[5-amino-6-(biphenyl-4-ylcarbonyl)pyrazin-2-yl]-N-(phenylmethyl)benzamide] and `COc1ccc(C(=O)c2nc(-c3cccc(C(=O)NCc4ccccc4)c3)cnc2N)c(OC)c1` [Example 588, 3-(5-amino-6-{[2,4-bis(methyloxy)phenyl]carbonyl}pyrazin-2-yl)-N-(phenylmethyl)benzamide] cannot be ordered by IC50: no less than 10000 nM for the first, no less than 10000 nM for the second.

`Nc1ncc(-c2cccc(CO)c2)nc1-c1nc(-c2cccnc2)n[nH]1` [Example 580, {3-[5-amino-6-(3-pyridin-3-yl-1H-1,2,4-triazol-5-yl)pyrazin-2-yl]phenyl}methanol] and `Nc1ncc(-c2cccc(CO)c2)nc1-c1nc(-c2cccs2)n[nH]1` [Example 583, (3-{5-amino-6-[3-(2-thienyl)-1H-1,2,4-triazol-5-yl]pyrazin-2-yl}phenyl)methanol] fall in the same range of IC50: 50 to 1000 nM for the first, 50 to 1000 nM for the second.

First: Nc1ncc(-c2cccc(CO)c2)nc1-c1nc(-c2ccc(Cl)cc2)n[nH]1 [Example 581, (3-{5-amino-6-[3-(4-chlorophenyl)-1H-1,2,4-triazol-5-yl]pyrazin-2-yl}phenyl)methanol]
Second: COc1cccc(-c2n[nH]c(-c3nc(-c4cccc(CN[C@H]5CCc6ccccc65)c4)cnc3N)n2)c1 [Example 584, 5-(3-{[(1S)-2,3-dihydro-1H-inden-1-ylamino]methyl}phenyl)-3-{3-[3-(methyloxy)phenyl]-1H-1,2,4-triazol-5-yl}pyrazin-2-amine]
The IC50 of the first is higher: no less than 10000 nM for the first, 50 to 1000 nM for the second.

`CC(C)(C)c1nnc(-c2nc(-c3cccc(CN[C@H]4CCc5ccccc54)c3)cnc2N)[nH]1` [Example 582, 5-(3-{[(1S)-2,3-dihydro-1H-inden-1-ylamino]methyl}phenyl)-3-[5-(1,1-dimethylethyl)-4H-1,2,4-triazol-3-yl]pyrazin-2-amine] and `Nc1ncc(-c2cccc(CN[C@H]3CCc4ccccc43)c2)nc1C(=O)NCCCn1ccnc1` [Example 586, 3-amino-6-(3-{[(1S)-2,3-dihydro-1H-inden-1-ylamino]methyl}phenyl)-N-[3-(1H-imidazol-1-yl)propyl]pyrazine-2-carboxamide] fall in the same range of IC50: 50 to 1000 nM for the first, 50 to 1000 nM for the second.

Work on `COC(=O)C1CCCN(C(=O)c2nc(-c3cccc(C(=O)NCc4ccccc4)c3)cnc2N)C1` (stereo not drawn) [Example 591, methyl 1-{[3-amino-6-(3-{[(phenylmethyl)amino]carbonyl}phenyl)pyrazin-2-yl]carbonyl}piperidine-3-carboxylate] yielded an IC50 of no less than 10000 nM.
